Like-named read-outs stand apart in the source and are kept apart here.
Key:
[1] = test system: LAN5 human neuroblastoma cells; assay: Neuronal cell sprouting (neurite length); assay type: cell-based; conditions: 10 μM, 7 days; for average length of the neurites: ± SD, untreated 21.8 ± 8.8
Protocol: LAN5 human neuroblastoma cells were seeded in 6-well plates (25.000 cells/well) in DMEM (Dulbecco's Modified Eagle's Medium) medium, additioned with 10% -fetal serum and 40 micrograms/ml gentamycin. After 24 hours, the enol tautomer of 3-indolylpyruvic acid or its derivatives, at an end concentration of 10 μM was added to the culture medium. The treatment was continued for 7 days, with medium replacement and addition of the compound under test every three days. At +7 days the cells were photopgraphed, using a Leitz Dialux 20 microscope. Then, neurite length was measured.
The results, reported in the following Table, express, in microns, the average length of the neurites for each treatment; ± is the standard deviation: […]

[2] = Plasma levels in dogs after administration in food-mixed pellets; assay type: in vivo; conditions: dog, oral
Protocol: In dogs as well analogous results were obtained, as the administration (in food-mixed pellets) of 100 mg/Kg enol form of 3-indolylpyruvic acid led, at +1 hour, to plasma rates of 106±47 -mcg/ml in acute, and of 97±17 mcg/ml in chronic. 285 mg/Kg doses produced, at +1 hour,concentrations of 136±17 mcg/ml in acute, and of 120±8 mcg/ml in chronic.

[3] = Stability of the enol form in solution (UV 325 nm peak, HPLC); assay type: physicochemical
Description: When the enol tautomer of 3-indolylpyruvic acid is solubilized in an aqueous environment, the decline of the UV peak at 325 nm, more or less quick according to the solution temperature, the pH and the type of buffer used is immediately observed. […] In the experimental conditions used, a quicker disappearance of the 325 nm peak is observed when the enol tautomer of the ketoacid is solubilized in diluted NaOH solutions; it follows that in this solvent the keto-enol equilibrium shifts towards the keto form in a few seconds.
At longer incubation times also the gem-diole form disappears, without giving rise to the keto form.
In particular, using a phosphate solution at pH 7.4, it is observed that the enol form drops to the 44% already at +30 min, whereas the gem-diole form begins to predominate (increase) at +1 hour (44% vs 23%), yet it stabilizes at about +2 hours (49%), and then gradually declines.

[4] = Incubation in rat tissue homogenates, enol form versus keto form; assay type: in vitro ADME
Description: (§1) The near-pure enol tautomer of 3-indolylpyruvic acid, obtained by the method described above in examples 1 and 2, was investigated on rat tissue homogenates, in order to highlight its participation in the methabolic pathways characterizing the use of tryptophan and of its derivatives in mammalian cells. […] This phenomenon, ascribed to the presence in biological fluids of a specific tautomerase already reported in literature, allows the enol form to be subjected to biochemical transformations by specific enzymes active on the indoles. In particular, when the enol form of the ketoacid is incubated in rat liver homogenates, a gradual transformation of the enol of 3-indolylpyruvic acid in tryptophan is observed: the transformation is rather linear in time, is independent from the pH—at least in the 6.5÷7.5 interval—and it leads to the conversion of over the 50% of the ketoacid in 5 hours.

[5] = Plasma levels in rats after gastric lavage; assay type: in vivo; conditions: rat, oral, read-out: plasma level
Protocol: Raising the dose to 400 mg/Kg, values of 160±13 mcg/ml for acute administration and of 189±68 mcg/ml for chronic administration were obtained.

[6] = test system: Human melanoma cells (A2058 line); assay: Melanoma cell invasion through Matrigel; assay type: cell-based; conditions: mean of three experiments ± SD
Description: Matrigel is an extracellular biological matrix extracted from the Englebreth-Holm-Swarm murine sarcoma, composed of the major components of the basement membrane like laminin, entactin, collagen IV and proteoglycans. At room temperature, Matrigel forms a gel that can promote the growth of primary and continuous cell lines, and moreover can act as medium (substrate) for the adhesion, the differentiation, the migration and the invasion of tumor cell lines. Due to such features, a Matrigel test is commonly used in order to characterize the activity of substances capable of interfering with the motility of tumor cells and of inflammatory response cells. The test is conducted in wells partitioned by an 8 micron pore size membrane: Matrigel (12.4 micrograms) is uniformly spread on the membrane, whereas a chemoattractant (600 microliters), consisting of the supernatant of a murine hembryo cell line (3T3) is inserted in the bottom section of the well. The cells to be tested are seeded in the top section of the well, whereas the compounds that could interfere with their motility are placed above as well as below the membrane, so as to prevent the formation of a concentration gradient. At the end of the experiment, the cells that have crossed the membrane are counted.
Human melanoma cells (A2058 line) were cultured in MEM medium, in a 5% CO2 at 37° C. Having reached the desired growth level, the (100.000) cells were seeded in the top section of the well. The enol of 3-indolylpyruvic acid and its salts, solubilized in the cell culture medium were placed in the top and bottom section of the well.

[7] = Solubility of the enol form in solvents; assay type: physicochemical
[8] = test system: superoxide anion; assay: Neutralizing power towards oxygen free radicals; assay type: biochemical; conditions: contrarily to the keto tautomer form
Protocol: (§2) It is already known from literature that the 3-indolylpyruvic acid may function, in suitable methabolic situations, as direct precursor to the kynurenic acid, the most important endogenous inhibitor of the excitatory amino acids. […] Therefore, comparison tests were conducted between the enol form of 3-indolylpyruvic acid, obtained according to the method described above in examples 1 and 2, the keto form (obtained solubilizing a standard preparation of 3-indolylpyruvic acid obtained from commercial sources in 0.1M NaOH), and a mixture of the two forms (obtained solubilizing the above standard preparation in a pH 7.4 phosphate buffer). […] Moreover, the enol form is found to be 100 to 1000 times more powerful than the keto one, both in protecting membrane phospholipids from degradation and in blocking luminol chemiluminescence induced by a xanthin/xanthin oxidase mixture. Concerning the formation of kynurenic acid, under the same experimental conditions the enol form of 3-indolylpyruvic acid always produced from 20 to 100 times more kynurenic acid than the keto form or the mixture of the two forms. […] Concomitantly, kynurenic acid began to form, reaching a plasma peak at +90-+180 min from the enol injection, with remarkable interindividual variations.

[9] = test system: rats; assay: Pharmacological tests in rats, oral and IP; assay type: in vivo, rat
[10] = Incubation in rat liver homogenates; assay type: in vitro ADME
Description: as §1, with “a gradual transformation of the enol of 3-indolylpyruvic acid in tryptophan is observed: the transformation” left out

[11] = Intravenous injection in baboons, enol and kynurenic acid plasma kinetics; assay type: in vivo, baboon; conditions: intravenously, 200 mg/Kg
Protocol: as §2

[12] = cited from earlier work
[13] = phosphate solution pH 7.4, +1 hour

O=C(O)/C(O)=C/c1c[nH]c2ccccc12 [3-IPA ENOL, enol tautomer of 3-indolylpyruvic acid]
average length of the neurites [1]: 31.9 ± 6.8 micrometers
concentration at 1 h ([2]; 100 mg/kg, chronic, read-out: plasma rate): 97 ± 17 µg/mL
concentration at 1 h ([2]; 100 mg/kg, food-mixed pellets, 100 mg/Kg, acute, read-out: plasma rate): 106 ± 47 µg/mL
concentration at 1 h ([2]; 285 mg/kg, acute, read-out: plasma concentration): 136 ± 17 µg/mL
concentration at 1 h ([2]; 285 mg/kg, chronic, read-out: plasma concentration): 120 ± 8 µg/mL
time in which keto-enol equilibrium shifts towards the keto form ([3]; diluted NaOH solutions): a few seconds
stability in methanol ([3]; methanol, several days at room temperature): extremely stable
enol form remaining ([3]; phosphate solution pH 7.4, +30 min): 44%
enol form remaining [3, 13]: 23%
gem-diole form formed [3, 13]: 44%
gem-diole form formed ([3]; phosphate solution pH 7.4, about +2 hours): ~49%
stability in slightly alkaline buffer environments ([4]; pH 7.4, rat tissue homogenates): good stability
concentration at 1 hour ([5]; 100 mg/kg, chronic): 183 ± 78 µg/mL
concentration at 1 h ([5]; 100 mg/kg, gastric lavage, 100 mg/Kg, acute, +1 hour): 74 ± 14 µg/mL
concentration at 1 hour ([5]; 400 mg/kg, acute): 160 ± 13 µg/mL
concentration at 1 hour ([5]; 400 mg/kg, chronic): 189 ± 68 µg/mL
inhibition at 125 µM ([6]; Homo sapiens, 125 μM): 44 ± 5%
inhibition at 250 µM ([6]; Homo sapiens, 250 μM): 77 ± 11%
inhibition at 500 µM ([6]; Homo sapiens, 500 μM): 97 ± 2%
solubility in acetone ([7]; acetone): highly soluble
solubility in chloroform ([7]; chloroform): wholly insoluble
solubility in ethanol ([7]; ethanol): highly soluble
solubility in ethyl ether ([7]; ethyl ether): slightly soluble
solubility in methanol ([7]; methanol): highly soluble
solubility in water ([7]; water): wholly insoluble
neutralizing power towards superoxide anion and hydroxyl ions [8]: strong neutralizing power
observed effects compared with the mixture of the two tautomers ([9]; mixture in pH 7.4 phosphate buffer): clearly superior
pharmacological properties on the cardiovasculary system ([9]; orally and by IP injection): pressure reduction in hypertensive rats, but not in normotensive rats
pharmacological properties on the central nervous system ([9]; orally and by IP injection): prolongation of sleep, central analgesia, protection from NMDA-induced convulsions, reduction of toxic effects from opiates, anxiolytic and antidepressant effects, stress inhibition
transformation into 3-indolyl-lactic acid [10]: No transformation
enol plasma concentration curve [11]: remaining at clearly detectable levels for a few hours

O=C(O)Cc1c[nH]c2ccccc12 [3-Indolylacetic acid, reference compound]
effect on neurite length (in words) [1]: do not influence neurite length
average length of the neurites [1]: 23.3 ± 10.5 micrometers

O=C(O)C(O)Cc1c[nH]c2ccccc12 (centres unmarked) [3-Indolyllactic acid]
effect on neurite length (in words) [1]: noticeable effects on neurite length
average length of the neurites [1]: 39.7 ± 11.8 micrometers

O=C(O)C(=O)Cc1c[nH]c2ccccc12 [3-indolylpyruvic acid]
time in which UV spectrum of the enol tautomer converted to that of the keto tautomer ([12]; Schwarz 1961): over 2 hours
time in which largely converted to the keto form ([12]; solution at pH 8.0, Schwarz and Bitancourt 1960): 20 min

O=C(O)Cc1c[nH]c2ccc(O)cc12 [5-Hydroxy-Indolylacetic acid, reference compound]
effect on neurite length (in words) [1]: do not influence neurite length
average length of the neurites [1]: 25.7 ± 13.2 micrometers

O=C([O-])C(O)=Cc1c[nH]c2ccccc12.O=C([O-])C(O)=Cc1c[nH]c2ccccc12.[Ca+2] [Ca salt, calcium salt of the enol form of 3-indolylpyruvic acid]
average length of the neurites [1]: 32.7 ± 8.3 micrometers
Inhibition % ([6]; 70 μM): 38 ± 10%
Inhibition % ([6]; 140 μM): 82 ± 6%

O=C([O-])C(O)=Cc1c[nH]c2ccccc12.[K+] [K salt, potassium salt of the enol tautomer of 3-indolylpyruvic acid]
average length of the neurites [1]: 44.1 ± 12.1 micrometers
Inhibition % ([6]; 125 μM): 51 ± 3%
Inhibition % ([6]; 250 μM): 78 ± 3%

O=C([O-])C(O)=Cc1c[nH]c2ccccc12.[Li+] [Li salt, lithium salt of the enol tautomer of 3-indolylpyruvic acid]
average length of the neurites [1]: 29.4 ± 8.5 micrometers
Inhibition % ([6]; 125 μM): 48 ± 7%
Inhibition % ([6]; 250 μM): 91 ± 5%

O=C([O-])C(O)=Cc1c[nH]c2ccccc12.O=C([O-])C(O)=Cc1c[nH]c2ccccc12.[Mg+2] [Mg salt, magnesium salt of the enol form of 3-indolylpyruvic acid]
average length of the neurites [1]: 40.1 ± 17.5 micrometers
Inhibition % ([6]; 65 μM): 46 ± 14%
Inhibition % ([6]; 130 μM): 66 ± 7%

O=C([O-])C(O)=Cc1c[nH]c2ccccc12.[Na+] [Na salt, sodium salt of the enol form of 3-indolylpyruvic acid]
average length of the neurites [1]: 28.3 ± 16.4 micrometers
Inhibition % ([6]; 125 μM): 52 ± 1%
Inhibition % ([6]; 250 μM): 78 ± 3%

O=C(O)C(=O)Cc1c[nH]c2ccccc12 [keto form, reference compound]
transformation to tryptophan or to 3-indolyl-lactic acid ([4]; rat tissue homogenates): no significant transformations
effects on the considered pharmacological parameters ([9]; keto form solubilized in 0.1M NaOH): no apparent effects

Reference: patent US20050208125A1, “Substantially pure solid form of the enol tautomer of 3-indolypyruvic acid for use in the treatmetn of central nervous system disturbances” (priority 2002, published 2005)
